Experimental data from patent publication US10513534B2, “2′-chloro nucleoside analogs for HCV infection” (priority 2012, dated 2019).
Read-outs that look alike come from different tables or passages of the source.

Tests used:
[1] = Cytotoxicity evaluation, CellTiter-Blue Cell Viability Assay; details: human
HCV genotype 1b replicon = assay: HCV replicon assay (Zluc luciferase); type: cell-based; details: read-out: HCV Replicon EC50
Summary of the method: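 Zluc Huh-7 cells with HCV genotype 1b replicon and luciferase reporter treated with 5-fold dilutions (100 μM to 0.0000512 μM final) in duplicate, or at 1 and 10 μM. Luminescence read with ONE-glo; EC50 from dose-response fits, or % inhibition at the fixed concentrations.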

Zluc cells = assay: Cytotoxicity evaluation, CellTiter-Blue Cell Viability Assay; details: Zluc cells, CellTiter-Blue
[2] = Stability in simulated intestinal fluid; type: in vitro ADME; details: simulated intestinal fluid with pancreatin, 100 μM, 2 hours, 37° C.
Procedure: (§1) Stability in Simulated Gastric and Intestinal Fluids: Simulated gastric and intestinal fluids containing pepsin and pancreatin respectively were prepared according to the U.S. Pharmacopoeia USP291 procedure(www.pharmacopeia.cn/v29240/usp29nf24s0_ris1s126.html). Each test compound (final concentration 100 μM) was incubated in duplicate in the appropriate fluid for 2 hours at 37° C. The samples were quenched with […] cold acetonitrile, vortexed for 30 seconds and then centrifuged at 16100×g for 10 min. The supernatants were analyzed by HPLC on a C-18 column with UV detection at 252 nm. The time zero samples were prepared by adding SGF or SIF fluid to the quenching solvent followed by the test compound. Stability of the compound was determined by peak area of the test compound after incubation and calculated as percent of the peak area observed at time zero.

[3] = Liver triphosphate pharmacokinetics after single oral dose in cynomolgus monkeys; type: in vivo; details: normalized to 1 μmol/kg dose
Procedure: (§2) For each compound, a single oral dose at 10 mg/kg in PEG 200 (dose volume 3 mL/kg) was administered to cynomolgus monkeys. Untreated animals were used for the collection of control liver. Plasma samples were collected at 0.5, 1, 2, 4, 6, 8, 12 and 24 hours for compound 37, diastereomer 2.
Liver samples were analyzed for the relevant nucleoside triphosphate by LC-MS/MS. […] Appropriate internal standard solution was added to the homogenate followed by neutralization with 20% ammonium hydroxide solution and addition of 500 μL 1% formic acid. The tissue samples were extracted by weak anion exchange solid phase extraction (SPE). Post extraction, the eluates were evaporated under nitrogen, followed by reconstitution before injection onto the LC-MS/MS system.

[4] = Plasma prodrug and nucleoside pharmacokinetics after single oral dose in cynomolgus monkeys; type: in vivo; details: cynomolgus monkey, plasma, single oral 10 mg/kg
Procedure: as §2
Plasma samples were analyzed for the prodrug and nucleoside by LC-MS/MS. For protein precipitation and extraction, each plasma sample (50 μL) was treated with 500 μL of 0.2% formic acid in acetonitrile and 20 μL of an appropriate internal standard working solution. After vortexing and centrifugation, 500 µL of the sample extracts were transferred to a new plate, dried under N2 at ˜28° C. and reconstituted with 75 μL of 0.2% FA in water. The extracts were chromatographed on an Aquasil C18 column using a gradient system of 0.2% formic acid in water and acetonitrile. The analytes were detected and quantified by tandem mass spectrometry in positive ion mode on an MDS Sciex API4000 equipped with a Turbo Ionspray® interface.

fresh human hepatocytes = assay: Release of active metabolite in fresh human hepatocytes; type: in vitro ADME; design: key to FHH TP (6 hr): + ≤ 15; 15 < ++ ≤ 50; 50 < +++ ≤ 100; 100 < ++++; BLD = below limit of detection; details: 10 μM
Procedure: (§3) Plates of fresh human and mouse hepatocytes were obtained on ice. The medium was removed and replaced with hepatocyte culture medium (William's E supplemented with penicillin-streptomycin, 1% L-glutamine, 1% insulin-transferrin-selenium and 0.1 μM Dexamethasone (Invitrogen) or with Invitro GRO HI medium complemented with Torpedo antibiotics (Celsis)). Cells were left overnight in an incubator at 37° C. to acclimatize to culture and the medium.
(§4) Hepatocyte incubations were conducted at a final volume of 0.5 mL hepatocyte culture medium/well (0.8 million cells/well for human and 0.5 million cells/well for mouse; 12 well plate no overlay, collagen coat). Culture medium from overnight incubation of cells was removed and replaced with fresh medium, pre-warmed to 37° C., containing 10 μM of test compound from a stock solution in DMSO (final DMSO concentration was 0.1%). At each specific time point, incubation medium was removed and cell monolayers were carefully washed two times with ice-cold PBS. Following the last wash, all PBS was carefully removed and 1.0 mL of extraction solution (ice-cold 70% methanol/30% water) added. Cells were scraped off and suspended in the extraction solution, transferred to 2 mL polypropylene microfuge tubes and intracellular contents extracted overnight at −20° C.
(§5) After the overnight treatment the cellular extracts were prepared by centrifugation at 16,000×g for 10 min to remove cellular debris. The remaining sample was then dried using a refrigerated centrivap concentrator. Dry extracts were reconstituted in 1000 μL of HPLC-grade water and centrifuged at 16,000×g for 10 min. Aliquots (100 μL each) of the supernatant were transferred into a 96 well plate and internal standard (4 ng/mL final concentration) was added as the internal standard (IS) for LC-MS/MS analysis.
(§6) The incubation time points were 6, 24 and 48 hours for human hepatocytes and 1, 4, 8, 12 and 24 hours for mouse hepatocytes.

[5] = Stability in simulated gastric fluid; type: in vitro ADME; details: simulated gastric fluid with pepsin, 100 μM, 2 hours, 37° C.
Procedure: as §1

fresh mouse hepatocytes = assay: Release of active metabolite in fresh mouse hepatocytes; type: in vitro ADME; details: 10 μM
Procedure: as §3, §4, §5, §6

[6] = Plasma nucleoside pharmacokinetics after single oral dose in CD-1 mice; type: in vivo; details: single oral dose 10 mg/kg in PEG 200
Summary of the method: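 Mouse plasma was extracted by acetonitrile/0.2% formic acid protein precipitation using 2′-MeG-D3 or tiapride as internal standard. Nucleoside was quantified by positive-ion LC-MS/MS after C18 gradient separation. Calibration spanned 0.500 (LLOQ) to 200 ng/mL.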

SMILES | CC50 [1] [µM] | EC50 (HCV genotype 1b replicon; Hepatitis C virus, 72 h) [µM] | CC50 (Zluc cells) [µM] | SIF stability (percent remaining) [2] | Nucleoside triphosphate in Liver C6 ([3]; 6 hours post dose, 10 mg/kg oral) | Nucleoside triphosphate in Liver AUC0-24 ([3]; single oral 10 mg/kg) | Nucleoside triphosphate in Liver Cmax ([3]; single oral 10 mg/kg) | EC50 (HCV genotype 1b replicon; Zluc cells, 72 hours) [µM] | Tmax [4] [h] | AUC(0-t) ([4]; normalized to 1 μmol/kg dose, read-out: Plasma prodrug AUC0-24) [µM·h] | Cmax ([4]; normalized to 1 μmol/kg dose, read-out: Plasma prodrug Cmax) [nM] | FHH TP AUC (fresh human hepatocytes) | FHH TP Cmax (fresh human hepatocytes) | FHH TP (6 hr) (fresh human hepatocytes; 6 hr) | FHH TP (24 hr) (fresh human hepatocytes; 24 hr) | FHH TP (48 hr) (fresh human hepatocytes; 48 hr) | SGF stability (percent remaining) [5] | MsH AUC (fresh mouse hepatocytes) | MsH Cmax (fresh mouse hepatocytes) | Ms Plasma nucleoside Cmax [6]
CCOC(=O)COP(=O)(OC[C@H]1O[C@@H](n2ccc(=O)[nH]c2=O)[C@](C)(Cl)[C@@H]1O)Oc1ccccc1 (mixture of isomers) [Compound 72 Mixture of P-Diastereoisomers] | > 50 | > 10 |  |  |  |  |  |  |  |  |  |  |  |  |  |  |  |  |  | 
CC(C)OP1(=O)OC[C@H]2O[C@@H](n3ccc(=O)[nH]c3=O)[C@](C)(Cl)[C@@H]2O1 (single isomer, unassigned) [Compound 37 Diastereomer 2] |  |  | > 50 | ++++ (75% < ++++) | ++++ (100 < ++++) | ++++ (1500 < ++++) | ++++ (100 < ++++) | 1 to 10 | 4 | > 1.5 | > 100 | +++ (500 < +++ ≤ 1500) | ++ (15 < ++ ≤ 50) | BLD^b | ++ (15 < ++ ≤ 50) | ++ (15 < ++ ≤ 50) | ++++ (75% < ++++) | ++++ (1500 < ++++) | ++++ (100 < ++++) | +++ (50 < +++ ≤ 100)
CCOC(=O)COP(=O)(OC[C@H]1O[C@@H](n2ccc(=O)[nH]c2=O)[C@](C)(Cl)[C@@H]1O)Oc1ccccc1 (single isomer, unassigned) [Compound 72 Diastereomer 1] | > 50 | > 10 |  |  |  |  |  |  |  |  |  |  |  |  |  |  |  |  |  | 
